Experiments:
Type in all cases: physicochemical
[1] = target: T1, human serum albumin (HSA) (Homo sapiens, UniProt P02768); test: Relaxivity R1 at 20 MHz during thermal denaturation of 4.5% HSA solutions; conditions: 0.3 mM Gd-DTPA, 0.1 mM MS-325; for R1: 20 MHz, 4.5% HSA solution
Procedure: (§1) In these examples, the longitudinal relaxivities (R1, mM^−1 sec^−1) were monitored and obtained at 20 MHz by determining the relaxation rate (1/T1) of water protons in phosphate buffered saline (PBS, 150 mM NaCl, 10 mM phosphate, pH=7.4), in PBS solutions containing 4.5 wt % HSA, or in gels containing 4.5 wt % HSA and 1% Agar. The dependence of temperature on relaxivity (R1) was observed by varying the temperature of the samples with a circulating water bath and monitoring sample temperature with a thermocouple.
(§2) The following three samples were prepared in solutions of 4.5% HSA: (1) a control sample without a contrast agent; (2) a comparative sample with Gd-DTPA; and (3) a sample with MS-325. The samples with Gd-DTPA and MS-325 were prepared by adding an aqueous formulation (pH=7) comprising either Gd-DTPA or MS-325 to the 4.5% HSA solution.
The three samples were then used to monitor the thermal denaturation of the 4.5% HSA solutions. […] Each sample was then removed from the NMR and heated at 85° C. for 15 minutes to induce thermal denaturation of the HSA. Subsequently, the sample was returned to the NMR and T1 data was collected at this higher temperature.

[2] = target: T1, human serum albumin (HSA); test: Relaxivity R1 at 20 MHz during ethanol denaturation of 4.5% HSA solutions; conditions: for R1 0.08 mM MS-325: 4.5% HSA, 37° C.
Procedure: as §1, §2
Absolute ethanol was then titrated to each of the samples. T1 data (and thus R1 data (=1/T1)) was collected at 20 MHz and 37° C. after each addition of ethanol.

[3] = target: T1, human serum albumin (HSA); test: T1-weighted MRI at 1.0 Tesla of agar phantoms containing 4.5% HSA during thermal denaturation; conditions: for % Loss ROI: 1% agar, 4.5% HSA
Procedure: The following samples were prepared in 1% agar gels containing 4.5% HSA: (1) a control sample without a contrast agent; (2) a comparative sample with Gd-DTPA; and (3) a sample with MS-325. The contrast agents were added in an amount sufficient such that the concentration of Gd-DTPA and MS-325 were 0.3 mM Gd-DTPA and 0.1 mM MS-325, respectively. Such agar gels containing 4.5% HSA are referred to as “phantoms”.
Initial T1-weighted MRI scans (FISP-3D, TR=15, TE=4, alpha=30) at 1.0 Tesla of the agar phantoms were then obtained at a temperature of about 25° C.
The phantoms were then heated in a circulating water bath with additional T1-weighted MRI scans obtained over time.

T1 sequence (P02768 25-609): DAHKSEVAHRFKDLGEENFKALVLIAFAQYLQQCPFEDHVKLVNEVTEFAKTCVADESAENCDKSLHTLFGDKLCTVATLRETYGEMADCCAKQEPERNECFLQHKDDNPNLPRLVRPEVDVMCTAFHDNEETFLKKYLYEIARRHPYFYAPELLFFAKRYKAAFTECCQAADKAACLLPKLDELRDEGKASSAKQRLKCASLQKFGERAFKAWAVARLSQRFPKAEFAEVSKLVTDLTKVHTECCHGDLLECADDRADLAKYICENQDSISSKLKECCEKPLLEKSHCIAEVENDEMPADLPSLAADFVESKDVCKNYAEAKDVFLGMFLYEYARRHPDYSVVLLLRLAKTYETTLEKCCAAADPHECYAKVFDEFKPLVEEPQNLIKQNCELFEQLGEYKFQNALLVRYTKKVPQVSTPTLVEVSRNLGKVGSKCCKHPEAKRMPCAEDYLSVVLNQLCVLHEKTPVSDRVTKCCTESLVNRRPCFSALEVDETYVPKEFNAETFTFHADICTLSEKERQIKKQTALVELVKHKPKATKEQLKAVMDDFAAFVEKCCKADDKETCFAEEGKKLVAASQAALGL

## O=C(O)CN(CCN(CC(=O)O)CC(COP(=O)(O)OC1CCC(c2ccccc2)(c2ccccc2)CC1)N(CC(=O)O)CC(=O)O)CC(=O)O (centres unmarked) [MS-325]
[1]; 7.3 °C
  R1: 31.2 mM⁻¹ s⁻¹
[1]; 11.7 °C
  R1: 33.4 mM⁻¹ s⁻¹
[1]; 16.2 °C
  R1: 36.0 mM⁻¹ s⁻¹
[1]; 20.6 °C
  R1: 38.6 mM⁻¹ s⁻¹
[1]; 25.0 °C
  R1: 40.6 mM⁻¹ s⁻¹
[1]; 29.5 °C
  R1: 42.0 mM⁻¹ s⁻¹
[1]; 33.9 °C
  R1: 42.8 mM⁻¹ s⁻¹
[1]; 38.4 °C
  R1: 42.4 mM⁻¹ s⁻¹
[1]; 42.8 °C
  R1: 42.3 mM⁻¹ s⁻¹
[1]; 47.3 °C
  R1: 41.3 mM⁻¹ s⁻¹
[1]; 51.7 °C
  R1: 39.5 mM⁻¹ s⁻¹
[1]; 56.2 °C
  R1: 37.5 mM⁻¹ s⁻¹
[1]; 60.6 °C
  R1: 33.3 mM⁻¹ s⁻¹
[1]; 85.0 °C, after heating at 85° C. for 15 minutes (HSA denatured)
  R1: 10.8 mM⁻¹ s⁻¹
[1]; denatured samples cooled to 37° C.
  net loss in R1 after denatured samples cooled to physiological temperature: 25 mM^−1 sec^−1
[1]; from immediately before denaturation (56.2° C.) to immediately after denaturation (85° C.)
  loss in observed R1 during denaturation of the HSA: 26.7 mM⁻¹ s⁻¹
[2]; 4.5% HSA solutions, 0.31 mM Gd-DTPA, 0.08 mM MS-325, 37° C.
  decrease/change in observed relaxivity during ethanol ablation: 33 mM⁻¹ s⁻¹
[2]; ethanol 0.0 %
  R1 0.08 mM MS-325: 42.216 mM⁻¹ s⁻¹
[2]; ethanol 0.9 %
  R1 0.08 mM MS-325: 40.848 mM⁻¹ s⁻¹
[2]; ethanol 1.9 %
  R1 0.08 mM MS-325: 39.541 mM⁻¹ s⁻¹
[2]; ethanol 2.8 %
  R1 0.08 mM MS-325: 38.423 mM⁻¹ s⁻¹
[2]; ethanol 3.7 %
  R1 0.08 mM MS-325: 37.064 mM⁻¹ s⁻¹
[2]; ethanol 4.5 %
  R1 0.08 mM MS-325: 36.375 mM⁻¹ s⁻¹
[2]; ethanol 5.4 %
  R1 0.08 mM MS-325: 35.234 mM⁻¹ s⁻¹
[2]; ethanol 6.2 %
  R1 0.08 mM MS-325: 34.576 mM⁻¹ s⁻¹
[2]; ethanol 7.1 %
  R1 0.08 mM MS-325: 33.895 mM⁻¹ s⁻¹
[2]; ethanol 7.9 %
  R1 0.08 mM MS-325: 33.099 mM⁻¹ s⁻¹
[2]; ethanol 8.7 %
  R1 0.08 mM MS-325: 32.224 mM⁻¹ s⁻¹
[2]; ethanol 10.2 %
  R1 0.08 mM MS-325: 31.689 mM⁻¹ s⁻¹
[2]; ethanol 11.7 %
  R1 0.08 mM MS-325: 30.403 mM⁻¹ s⁻¹
[2]; ethanol 16.4 %
  R1 0.08 mM MS-325: 26.939 mM⁻¹ s⁻¹
[2]; ethanol 22.8 %
  R1 0.08 mM MS-325: 21.456 mM⁻¹ s⁻¹
[2]; ethanol 28.3 %
  R1 0.08 mM MS-325: 17.428 mM⁻¹ s⁻¹
[2]; ethanol 33.1 %
  R1 0.08 mM MS-325: 14.082 mM⁻¹ s⁻¹
[2]; ethanol 37.3 %
  R1 0.08 mM MS-325: 11.187 mM⁻¹ s⁻¹
[2]; ethanol 41.0 %
  R1 0.08 mM MS-325: 9.6943 mM⁻¹ s⁻¹
[2]; ethanol 44.2 %
  R1 0.08 mM MS-325: 8.9506 mM⁻¹ s⁻¹
[2]; ethanol 47.2 %
  R1 0.08 mM MS-325: 8.7970 mM⁻¹ s⁻¹
[3]; 0 min, 25.3 °C, 0.3 mM Gd-DTPA, 0.1 mM MS-325, 1.0 Tesla
  % Loss ROI: 0.0000%
[3]; 10 min, 29.6 °C, 0.3 mM Gd-DTPA, 0.1 mM MS-325, 1.0 Tesla
  % Loss ROI: −4.4755%
[3]; 20 min, 38.3 °C, 0.3 mM Gd-DTPA, 0.1 mM MS-325, 1.0 Tesla
  % Loss ROI: −6.4144%
[3]; 30 min, 45.0 °C, 0.3 mM Gd-DTPA, 0.1 mM MS-325, 1.0 Tesla
  % Loss ROI: −11.241%
[3]; 40 min, 53.0 °C, 0.3 mM Gd-DTPA, 0.1 mM MS-325, 1.0 Tesla
  % Loss ROI: −26.153%
[3]; 50 min, 64.7 °C, 0.3 mM Gd-DTPA, 0.1 mM MS-325, 1.0 Tesla
  % Loss ROI: −49.262%
[3]; 60 min, 72.8 °C, 0.3 mM Gd-DTPA, 0.1 mM MS-325, 1.0 Tesla
  % Loss ROI: −69.499%
[3]; 70 min, 87.1 °C, 0.3 mM Gd-DTPA, 0.1 mM MS-325, 1.0 Tesla
  % Loss ROI: −76.469%
[3]; 120 min, 35.5 °C (cooled after denaturation), 0.3 mM Gd-DTPA, 0.1 mM MS-325, 1.0 Tesla
  % Loss ROI: −31.869%
[3]; about 25° C., 1.0 Tesla, versus phantoms with Gd-DTPA or 4.5% HSA alone
  brightness of phantoms in initial T1-weighted MRI scans: brighter
[3]; denatured phantoms cooled to 37° C., 0.3 mM Gd-DTPA, 0.1 mM MS-325
  loss in signal intensity after denaturation and cooling: 32%
[3]; phantoms heated above 50–60° C., 0.3 mM Gd-DTPA, 0.1 mM MS-325
  loss of signal intensity on thermal denaturation: 76%
